“And” between values parts separate entries of the source, which are not always exact repeats. Identical values can stand only once.
Key:
[1] = Body weight of rats in the cataract model study; format: in vivo, rat; settings: 10 μl 3 times/day
Experimental: (§1) At the age of 11-12 days after birth, all suckling rats underwent a single intraperitoneal injection of sodium selenite (30 μmol/kg, i.e., 0.1 ml/10 g) for model-building. Sodium selenite solution was configured with normal saline at a concentration of 3 mM.
(§2) At the age of 19 days after birth (D-1) of the suckling rats, 30 lens opacities were selected for a cloudy rating at Class 4 or 5; Wister suckling rats were randomly divided into 5 groups (G1-G5 groups, 6 in each group); and a cage of suckling rats as G6 was randomly selected after the animals opened their eyes (14-16 days of age).
(§3) The subject suckling rats of groups G1 to G5 were treated at the age of 20 days after birth (D1), and the specific dosing information is shown in Table 1. Treatment in the G6 group was conducted after the animals opened their eyes (14-16 days old, D-6-D-4), and the specific dosing information is shown in Table 1.

[2] = tested on: Wistar rat cataract model induced by sodium selenite; assay: Lens opacity score (slit lamp) in sodium selenite-induced cataract rat model; format: in vivo; design: lens opacity score, Mean / lens opacity score / lens opacity score, raw data per eye (OD/OS, rats 1-6): scale not given here
Experimental: A new batch of eye drops solutions was prepared every week. Placebo was a solution that contained the same excipients but without the drug compound. The eye drops solutions were prepared as follows:
3. An illustrative procedure: To a 250 mL volume flask were added 25 mg each of the excipients, sodium borate, boric acid, sodium chloride, and potassium chloride, an aspirin mimetic drug compound to be tested (e.g., DPL-004, 9.0 mg), and about 200 ml of sterilized water to form a mixture. The resultant mixture was shaken well to dissolve solids; and more sterilized water was added to bring the volume of solution to 250 mL, which was shaken well and then distributed into small portions. Each portion was labeled with a concentration of 3.6 mg/100 mL and the preparation date and was stored in a refrigerator for future use.
4. Eye drops solutions comprising DPL-004 at a concentration of 36 mg/100 mL and 12 mg/100 mL were prepared similarly according to the above procedure by using 90 mg and 30 mg of DPL-004, respectively, while maintaining the same amounts of excipients as shown above.
as §1, §2, §3
At D-1, in the fourth week of treatment, the slit lamp was used at the end of administration to observe the turbidity of the lens and grade it, and the grading and scoring criteria are shown in the following Table 2.

[3] = General clinical observations during 60-day eye drop administration; format: in vivo, rat; settings: eye drops 3 times/day, 60-day administration phase, all concentrations
Text: as §2

[4] = G3, 36 mg/0.1 L D1-D31 then 1.8 mg/0.1 L D32-D60, 10 μl 3 times/day, pH 6.5, day 60
[5] = G3, 36 mg/0.1 L, 10 μl 3 times/day, pH 6.5, day 28
[6] = G3, 36 mg/0.1 L, 10 μl 3 times/day, pH 6.5, day -1 (before administration)
[7] = G4, 12 mg/0.1 L, 10 μl 3 times/day, pH 6.5, day 28
[8] = G4, 12 mg/0.1 L, 10 μl 3 times/day, pH 6.5, day 60
[9] = G4, 12 mg/0.1 L, 10 μl 3 times/day, pH 6.5, day -1 (before administration)
[10] = G5, 3.6 mg/0.1 L, 10 μl 3 times/day, pH 6.5, day 28
[11] = G5, 3.6 mg/0.1 L, 10 μl 3 times/day, pH 6.5, day 60
[12] = G5, 3.6 mg/0.1 L, 10 μl 3 times/day, pH 6.5, day -1 (before administration)
[13] = G6 preventive dosing from D-6, 3.6 mg/0.1 L, 10 μl 3 times/day, pH 7.4, day 22
[14] = G6 preventive dosing from D-6, 3.6 mg/0.1 L, 10 μl 3 times/day, pH 7.4, day -1
[15] = G6 preventive dosing from D-6, 3.6 mg/0.1 L, 10 μl 3 times/day, pH 7.4, day -6
[16] = G6 preventive dosing from D-6, 3.6 mg/0.1 L, 10 μl 3 times/day, pH 7.4 to D31 then pH 6.0 D32-D60, day 60

O=C(Sc1ccccc1C(=O)S)c1cccnc1 [DPL-004, 2-[(pyridine-3-carbonyl)sulfanyl]benzene-1-carbothioic S-acid]
Body Weight, Mean ([1]; G3, 36 mg/0.1 L (D32-D60 1.8 mg/0.1 L), pH 6.5, day 4): 58.22 g
Body Weight, Mean ([1]; G3, 36 mg/0.1 L (D32-D60 1.8 mg/0.1 L), pH 6.5, day 11): 97.48 g
Body Weight, Mean ([1]; G3, 36 mg/0.1 L (D32-D60 1.8 mg/0.1 L), pH 6.5, day 18): 130.98 g
Body Weight, Mean ([1]; G3, 36 mg/0.1 L (D32-D60 1.8 mg/0.1 L), pH 6.5, day 25): 161.68 g
Body Weight, Mean ([1]; G3, 36 mg/0.1 L (D32-D60 1.8 mg/0.1 L), pH 6.5, day 32): 184.12 g
Body Weight, Mean ([1]; G3, 36 mg/0.1 L (D32-D60 1.8 mg/0.1 L), pH 6.5, day 39): 210.05 g
Body Weight, Mean ([1]; G3, 36 mg/0.1 L (D32-D60 1.8 mg/0.1 L), pH 6.5, day 46): 232.55 g
Body Weight, Mean ([1]; G3, 36 mg/0.1 L (D32-D60 1.8 mg/0.1 L), pH 6.5, day 53): 256.08 g
Body Weight, Mean ([1]; G3, 36 mg/0.1 L (D32-D60 1.8 mg/0.1 L), pH 6.5, day 60): 273.13 g
Body Weight, Mean ([1]; G3, 36 mg/0.1 L (D32-D60 1.8 mg/0.1 L), pH 6.5, day -1 (before administration)): 45.68 g
Body Weight, Mean ([1]; G4, 12 mg/0.1 L, pH 6.5, day 4): 59.37 g
Body Weight, Mean ([1]; G4, 12 mg/0.1 L, pH 6.5, day 11): 98.03 g
Body Weight, Mean ([1]; G4, 12 mg/0.1 L, pH 6.5, day 18): 138.57 g
Body Weight, Mean ([1]; G4, 12 mg/0.1 L, pH 6.5, day 25): 166.05 g
Body Weight, Mean ([1]; G4, 12 mg/0.1 L, pH 6.5, day 32): 188.40 g
Body Weight, Mean ([1]; G4, 12 mg/0.1 L, pH 6.5, day 39): 209.05 g
Body Weight, Mean ([1]; G4, 12 mg/0.1 L, pH 6.5, day 46): 232.02 g
Body Weight, Mean ([1]; G4, 12 mg/0.1 L, pH 6.5, day 53): 240.18 g
Body Weight, Mean ([1]; G4, 12 mg/0.1 L, pH 6.5, day 60): 269.85 g
Body Weight, Mean ([1]; G4, 12 mg/0.1 L, pH 6.5, day -1 (before administration)): 46.10 g
Body Weight, Mean ([1]; G5, 3.6 mg/0.1 L, pH 6.5, day 4): 60.25 g
Body Weight, Mean ([1]; G5, 3.6 mg/0.1 L, pH 6.5, day 11): 101.48 g
Body Weight, Mean ([1]; G5, 3.6 mg/0.1 L, pH 6.5, day 18): 149.00 g
Body Weight, Mean ([1]; G5, 3.6 mg/0.1 L, pH 6.5, day 25): 188.37 g
Body Weight, Mean ([1]; G5, 3.6 mg/0.1 L, pH 6.5, day 32): 230.95 g
Body Weight, Mean ([1]; G5, 3.6 mg/0.1 L, pH 6.5, day 39): 257.97 g
Body Weight, Mean ([1]; G5, 3.6 mg/0.1 L, pH 6.5, day 46): 304.65 g
Body Weight, Mean ([1]; G5, 3.6 mg/0.1 L, pH 6.5, day 53): 323.03 g
Body Weight, Mean ([1]; G5, 3.6 mg/0.1 L, pH 6.5, day 60): 343.05 g
Body Weight, Mean ([1]; G5, 3.6 mg/0.1 L, pH 6.5, day -1 (before administration)): 45.40 g
Body Weight, Mean ([1]; G6 preventive dosing from D-6, 3.6 mg/0.1 L, pH 7.4 (D32-D60 pH 6.0), day 4): 62.15 g
Body Weight, Mean ([1]; G6 preventive dosing from D-6, 3.6 mg/0.1 L, pH 7.4 (D32-D60 pH 6.0), day 11): 106.70 g
Body Weight, Mean ([1]; G6 preventive dosing from D-6, 3.6 mg/0.1 L, pH 7.4 (D32-D60 pH 6.0), day 18): 140.92 g
Body Weight, Mean ([1]; G6 preventive dosing from D-6, 3.6 mg/0.1 L, pH 7.4 (D32-D60 pH 6.0), day 25): 171.78 g
Body Weight, Mean ([1]; G6 preventive dosing from D-6, 3.6 mg/0.1 L, pH 7.4 (D32-D60 pH 6.0), day 32): 211.43 g
Body Weight, Mean ([1]; G6 preventive dosing from D-6, 3.6 mg/0.1 L, pH 7.4 (D32-D60 pH 6.0), day 39): 251.03 g
Body Weight, Mean ([1]; G6 preventive dosing from D-6, 3.6 mg/0.1 L, pH 7.4 (D32-D60 pH 6.0), day 46): 283.27 g
Body Weight, Mean ([1]; G6 preventive dosing from D-6, 3.6 mg/0.1 L, pH 7.4 (D32-D60 pH 6.0), day 53): 303.65 g
Body Weight, Mean ([1]; G6 preventive dosing from D-6, 3.6 mg/0.1 L, pH 7.4 (D32-D60 pH 6.0), day 60): 330.03 g
Body Weight, Mean ([1]; G6 preventive dosing from D-6, 3.6 mg/0.1 L, pH 7.4 (D32-D60 pH 6.0), day -1): 45.27 g
Body Weight, Mean ([1]; G6 preventive dosing from D-6, 3.6 mg/0.1 L, pH 7.4 (D32-D60 pH 6.0), day -6): 35.83 g
lens opacity score, Mean [2, 4]: 2.75
lens opacity score, raw data per eye (OD/OS, rats 1-6) [2, 4]: 2 and 3 and 4
lens opacity score, Mean [2, 5]: 3.58
lens opacity score, raw data per eye (OD/OS, rats 1-6) [2, 5]: 3 and 4
lens opacity score, Mean [2, 6]: 4.00
lens opacity score, raw data per eye (OD/OS, rats 1-6) [2, 6]: 4
lens opacity score, Mean [2, 7]: 3.50
lens opacity score, raw data per eye (OD/OS, rats 1-6) [2, 7]: 3 and 4
lens opacity score, Mean [2, 8]: 2.58
lens opacity score, raw data per eye (OD/OS, rats 1-6) [2, 8]: 2 and 3 and 4
lens opacity score, Mean [2, 9]: 4.00
lens opacity score, raw data per eye (OD/OS, rats 1-6) [2, 9]: 4
Efficacy (reduction of lens opacity score vs placebo G2) ([2]; G4, 12 mg/0.1 L, pH 6.5, D28): 4.63%
Efficacy (reduction of lens opacity score vs placebo G2) ([2]; G4, 12 mg/0.1 L, pH 6.5, D60): 14.0%
lens opacity score, Mean [2, 10]: 3.42
lens opacity score, raw data per eye (OD/OS, rats 1-6) [2, 10]: 4 and 3
lens opacity score, Mean [2, 11]: 2.58
lens opacity score, raw data per eye (OD/OS, rats 1-6) [2, 11]: 3 and 4 and 2
lens opacity score, Mean [2, 12]: 4.00
lens opacity score, raw data per eye (OD/OS, rats 1-6) [2, 12]: 4
Efficacy (reduction of lens opacity score vs placebo G2) ([2]; G5, 3.6 mg/0.1 L, pH 6.5, D28): 6.81%
Efficacy (reduction of lens opacity score vs placebo G2) ([2]; G5, 3.6 mg/0.1 L, pH 6.5, D60): 14.0%
lens opacity score ([2]; G6 early intervention, 3.6 mg/0.1 L, pH 7.4, in the period of 28 days): 4.0
lens opacity score, Mean [2, 13]: 4.00
lens opacity score, raw data per eye (OD/OS, rats 1-6) [2, 13]: 4
lens opacity score, Mean [2, 14]: 4.00
lens opacity score, raw data per eye (OD/OS, rats 1-6) [2, 14]: 4
lens opacity score, Mean [2, 15]: 4.00
lens opacity score, raw data per eye (OD/OS, rats 1-6) [2, 15]: 4
lens opacity score, Mean [2, 16]: 3.08
lens opacity score, raw data per eye (OD/OS, rats 1-6) [2, 16]: 4 and 3 and 2
effect on cataract in the rat model (in words) ([2]; eye drops, rat model): gradually reversing cataracts
abnormal symptoms (activity status, body weight, skin hair, secretion morphology and color) [3]: no abnormal symptoms
